Data taken from patent publication USRE31071E, “6-Aza-3H-1,4-benzodiazepines” (Deutsche Gold- und Silber-Scheideanstalt vormals Roessler, priority 1971, dated 1982).

Tested on: mice
Assay: rotating rod test (ataxic activity)
Assay type: in vivo
Conditions: quotient of ataxic to anxiolytic activity, orally, should be as large as possible
Text: Furthermore, there is given in this table the ataxic activity. The ratio of ataxic activity to the anxiolytic activity is of the greatest significance in using a material as an anxiolytic agent. This quotient should be as large as possible since an ataxic activity is undesirable. Ataxic activity means that the coordination of the muscular movements is disturbed--ataxicdisturbance of the muscular coordination. This means at the dosage at which a marked anxiolytic acitvity is present there should not be found a noteworthy ataxice. The toxicity, in case the data exists above the ataxic activity, is no longer important since the amount which is toxic is always considerably higher than the amount at which 50% (ED50) of the animals have an ataxic effect. The ataxic effect was measured on mice on the pattern of the rotating rod.
In the rotating rod test the animals (mice) were firest placed on a rotating rod 15 minutes after the application of the test material and then were placed on the rotating rod every 15 minutes and the animals which fell down within 2 minutes measured positive. From the number of animals which fell down expressed in percent there were drawn time-effect curves and the areas defined by it entered as percent effect in a probability network, the dosage-effect-line prepared and the ED50 read off. The ED50 mg/kg body weight of the mouse again specifies the dosage at which 50% of all the animals show a typical ataxic effect.

With `CC1N=C(c2ccccc2)c2nc(Cl)ccc2NC1=O` (racemic) [Example 4, 3-Methyl-5-phenyl-6-aza-7-chloro-1,2-dihydro-3H-1,4-benzodiazepinone-(2)] as the compound, how does the “ED50 Rotating Rod / ED50 Card. Shock” value read?
Its value is 4.3.

Which “ED50 Rotating Rod / ED50 Card. Shock” value does the source give for `O=C1CN=C(c2ccccc2Cl)c2nc(Cl)ccc2N1` [Example 6, 5-(o-Chlorophenyl)-6-aza-7-chloro-1,2-dihydro-3H-1,4-benzodiazepinone-(2)] here?
The value was 16.5.

Which “ED50 Rotating Rod / ED50 Card. Shock” value does the source give for `CN1C(=O)CN=C(c2ccccc2F)c2nc(Cl)ccc21` [Example 9, 1-Methyl-5-(o-fluorophenyl)-6-aza-7-chloro-1,2-dihydro-3H-1,4-benzodiazepinone-(2)] here?
The value was 6.1.

Which “ED50 Rotating Rod / ED50 Card. Shock” value does the source give for `O=C1CN=C(c2ccccc2F)c2nc(Cl)ccc2N1` [Example 10, 5-(-Fluorophenyl)-6-aza-7-chloro-1,2-dihydro-3H-1,4-benzodiazepinone-(2)] here?
Its value is 10.4.

With `O=C(O)CCC(=O)OC1N=C(c2ccccc2Cl)c2nc(Cl)ccc2NC1=O` (stereo not drawn) [Example 12] as the compound, how does the “ED50 Rotating Rod / ED50 Card. Shock” value read?
Its value is 13.5.

With `O=C1Nc2ccc(Cl)nc2C(c2ccccc2Cl)=NC1O` (stereo not drawn) [Example 13, 3-Hydroxy-5-o-chlorophenyl-6-aza-7-chloro-1,2-dihydro-3H-1,4-benzodiazepinone-(2)] as the compound, how does the “ED50 Rotating Rod / ED50 Card. Shock” value read?
Its value is 15.0.

Which “ED50 Rotating Rod / ED50 Card. Shock” value does the source give for `CC(=O)OC1N=C(c2ccccc2Cl)c2nc(Cl)ccc2N(C(C)=O)C1=O` (stereo not drawn) [Example 15, 1-Acetyl-3-acetoxy-5-(o-chlorophenyl)-6-aza-7-chloro-1,2-dihydro-3H-1,4-benzodiazepinone-(2)] here?
Its value is 6.7.

Which “ED50 Rotating Rod / ED50 Card. Shock” value does the source give for `CN1C(=O)CN=C(c2ccccc2)c2nc(Cl)ccc21` [Example 17, 1-Methyl-5-phenyl-6-aza-7-chloro-1,2-dihydro-3H-1,4-benzodiazepinone-(2)] here?
The value was 6.2.

Which “ED50 Rotating Rod / ED50 Card. Shock” value does the source give for `C=CCN1C(=O)CN=C(c2ccccc2)c2nc(Cl)ccc21` [Example 18, 1-Allyl-5-phenyl-6-aza-7-chloro-1,2-dihydro-3H-1,4-benzodiazepinone-(2)] here?
The value was 8.2.

For `O=C1CN=C(c2ccccc2)c2nc(Cl)ccc2N1CC1CC1` [Example 19], which “ED50 Rotating Rod / ED50 Card. Shock” value is on record?
The value was 7.7.

With `CN1C(=O)CN=C(c2ccccc2Cl)c2nc(Cl)ccc21` [Example 21, 1-Methyl-5-(o-chlorophenyl)-6-aza-7-chloro-1,2-dihydro-3H-1,4-benzodiazepinone-(2)] as the compound, how does the “ED50 Rotating Rod / ED50 Card. Shock” value read?
Its value is 10.2.

With `CN1C(=S)CN=C(c2ccccc2Cl)c2nc(Cl)ccc21` [Example 24, 1-Methyl-5-(o-chlorophenyl)-6-aza-7-chloro-1,2-dihydro-3H-1,4-benzodiazepinthione-(2)] as the compound, how does the “ED50 Rotating Rod / ED50 Card. Shock” value read?
Its value is 12.5.

Tested on: not given
Assay: not given
Conditions: in words; cited from earlier work

For `CN(C)CCOC(C)(c1ccccc1)c1ccc(Cl)cc1` (stereo not drawn) [chlorphenoxamine], which antihistamine activity is on record?
The antihistamine activity was “antihistamine activity reduced”.

Tested on: not given
Assay: not given
Conditions: J. Amer. Med. Ass. Vol. 170 (1959); cited from earlier work

With `CN(C)CCOC(C)(c1ccccc1)c1ccc(Cl)cc1` (stereo not drawn) [chlorphenoxamine] as the compound, how does the anticholinergic activity read?
Its anticholinergic activity is “strengthening of its anticholinergic activity”.

Tested on: not given
Assay: not given
Conditions: First Int. Pharmacological Meeting, Vol. 7; cited from earlier work

Which “stimulating activity / sedative action” value does the source give for `CC(NN)c1ccccc1` (stereo not drawn) [alpha phenyl-ethyl hydrazine] here?
Its value is “strong stimulating activity”.
